From ChEMBL document CHEMBL3399915, “Design, synthesis, and evaluation of phenylglycinols and phenyl amines as agonists of GPR88” (Bioorg Med Chem Lett, 2015)
pEC50: −log10 of the molar value. One block for each molecule: values may come before it.

Columns and labels:
[1] = molecular target: T1, G protein-coupled receptor 88 (Homo sapiens, UniProt Q9GZN0); experiment: Agonist activity at GPR88 (unknown origin) transfected in forskolin-stimulated HEK cells assessed as inhibition of cAMP production after 30 mins by HTRF method relative to control; assay type: functional, cell-based, HEK293
[2] = Drug uptake in rat CSF at 10 mg/kg, ip after 30 mins; assay type: ADME, organism-based, Cerebrospinal fluid; parameters: dose 10 mg/kg, route intraperitoneal; settings: read-out: Drug uptake
[3] = Plasma concentration in rat at 10 mg/kg, ip after 30 mins; assay type: ADME, organism-based; parameters: dose 10 mg/kg, route intraperitoneal
[4] = Drug uptake in rat CSF at 30 mg/kg, ip after 30 mins; assay type: ADME, organism-based, Cerebrospinal fluid; parameters: dose 30 mg/kg, route intraperitoneal; settings: read-out: Drug uptake
[5] = Drug uptake in rat lung at 30 mg/kg, ip after 30 mins; assay type: ADME, organism-based; parameters: dose 30 mg/kg, route intraperitoneal; settings: read-out: Drug uptake
[6] = Clearance in mouse at 10 mg/kg, ip; assay type: ADME, organism-based; parameters: dose 10 mg/kg, route intraperitoneal; settings: in vivo
[7] = Drug uptake in rat brain at 10 mg/kg, ip after 30 mins; assay type: ADME, organism-based; parameters: dose 10 mg/kg, route intraperitoneal; settings: read-out: Drug uptake
[8] = Plasma concentration in rat at 30 mg/kg, ip after 30 mins; assay type: ADME, organism-based; parameters: dose 30 mg/kg, route intraperitoneal
[9] = Drug uptake in rat brain at 30 mg/kg, ip after 30 mins; assay type: ADME, organism-based; parameters: dose 30 mg/kg, route intraperitoneal; settings: read-out: Drug uptake
[10] = Protein binding in rat brain by equilibrium dialysis method; assay type: ADME, tissue-based; settings: read-out: PB (converted)
[11] = Drug uptake in rat lung at 10 mg/kg, ip after 30 mins; assay type: ADME, organism-based; parameters: dose 10 mg/kg, route intraperitoneal; settings: read-out: Drug uptake
[12] = Plasma protein binding in rat by equilibrium dialysis method; assay type: ADME, cell-free; settings: read-out: PPB (converted)
[13] = Plasma protein binding in mouse by equilibrium dialysis method; assay type: ADME, cell-free; settings: read-out: PPB (converted)
[14] = molecular target: T1, G protein-coupled receptor 88; experiment: Agonist activity at GPR88 (unknown origin) transfected in forskolin-stimulated HEK cells assessed as [35S]GTPgammaS binding after 60 mins by trilux scintillation counting analysis relative to control; assay type: functional, cell-based, HEK293
[15] = Drug uptake in mouse brain at 1 mg/kg, iv after 30 mins; assay type: ADME, organism-based; parameters: dose 1 mg/kg, route intravenous; settings: read-out: Drug uptake
[16] = Clearance in mouse at 1 mg/kg, iv; assay type: ADME, organism-based; parameters: dose 1 mg/kg, route intravenous; settings: in vivo
[17] = Volume of distribution at steady state in mouse at 1 mg/kg, iv; assay type: ADME, organism-based; parameters: dose 1 mg/kg, route intravenous; settings: in vivo, read-out: Vdss
[18] = Ratio of drug level in brain to plasma in mouse at 1 mg/kg, iv after 30 mins; assay type: ADME, organism-based; parameters: dose 1 mg/kg, route intravenous; settings: brain and plasma, read-out: BPR
[19] = Plasma concentration in mouse at 1 mg/kg, iv after 30 mins; assay type: ADME, organism-based; parameters: dose 1 mg/kg, route intravenous
[20] = Half life in mouse at 1 mg/kg, iv; assay type: ADME, organism-based; parameters: dose 1 mg/kg, route intravenous; settings: in vivo

T1 sequence (Q9GZN0 whole entry): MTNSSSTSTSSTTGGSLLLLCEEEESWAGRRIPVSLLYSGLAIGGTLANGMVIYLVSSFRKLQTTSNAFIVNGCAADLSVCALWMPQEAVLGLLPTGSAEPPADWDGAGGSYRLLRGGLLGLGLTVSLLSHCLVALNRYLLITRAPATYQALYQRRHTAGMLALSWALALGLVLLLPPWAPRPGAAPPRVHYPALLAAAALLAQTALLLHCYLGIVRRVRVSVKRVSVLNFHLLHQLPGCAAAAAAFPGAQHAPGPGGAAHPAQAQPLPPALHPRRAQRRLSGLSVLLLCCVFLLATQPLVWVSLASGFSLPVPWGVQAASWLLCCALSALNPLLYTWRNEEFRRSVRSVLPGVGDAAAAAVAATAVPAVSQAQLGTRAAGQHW

Structure (SMILES): O=C(N[C@@H](CO)c1ccc2ccccc2c1)[C@H]1C[C@H]1c1ccccc1
pEC50 [1]: < 3.96

Structure (SMILES): COCC(C)Oc1ccc([C@H](CO)NC(=O)[C@@H](C)c2ccccc2)cc1 (stereo partly drawn)
pEC50 [1]: < 5.00

Structure (SMILES): O=C(N[C@@H](CO)c1ccc2ccccc2c1)[C@@H]1C[C@@H]1c1ccccc1
pEC50 [1]: < 4.09

Structure (SMILES): O=C(N[C@@H](CO)c1ccc2ccccc2c1)[C@@H]1C[C@H]1c1ccccc1
pEC50 [1]: < 3.57

Structure (SMILES): CCCC(C)COc1ccc([C@H](CN(C)C)NC(=O)[C@@H](C)c2ccccc2)cc1 (mixture of isomers)
pEC50 [1]: 7.54

Structure (SMILES): CC[C@H](C)COc1ccc([C@H](CO)NC(=O)[C@H]2C[C@@H]2c2cccs2)cc1
concentration at 0.5 h [2]: 5.6 nM
concentration at 0.5 h [3]: 2210 nM
concentration at 0.5 h [4]: 5.7 nM
pEC50 [1]: < 5.00
concentration at 0.5 h [5]: 11500 nM
CL/F [6]: 144 mL/min/kg
concentration at 0.5 h [7]: 2510 nM
concentration at 0.5 h [8]: 5270 nM
concentration at 0.5 h [9]: 5540 nM
fraction unbound [10]: 0.06

Structure (SMILES): C[C@H](C(=O)N[C@@H](CO)c1ccc(OCC2CCO2)cc1)c1ccccc1 (stereo partly drawn)
pEC50 [1]: < 5.00

Structure (SMILES): CC[C@H](C)COc1ccc([C@H](CN)NC(=O)[C@@H](C)c2ccccc2)cc1
concentration at 0.5 h [2]: 1.1 nM
concentration at 0.5 h [3]: 860 nM
concentration at 0.5 h [11]: 59500 nM
pEC50 [1]: < 5.00
CL/F [6]: 66 mL/min/kg
concentration at 0.5 h [7]: 340 nM
fraction unbound [10]: 0.09

Structure (SMILES): CCCC(C)COc1ccc([C@H](CO)NC(=O)C(CO)c2ccccc2)cc1 (mixture of isomers)
pEC50 [1]: 6.09

Structure (SMILES): CCCC(C)COc1ccc([C@H](CO)NC(=O)Cc2ccccc2)cc1 (mixture of isomers)
pEC50 [1]: < 5.00

Structure (SMILES): O=C(NC(CO)c1ccc2ccccc2c1)[C@@H]1C[C@H]1c1ccccc1 (mixture of isomers)
pEC50 [1]: 5.22

Structure (SMILES): O=C(N[C@@H](CO)c1ccc2ccccc2c1)[C@H]1C[C@@H]1c1ccccc1
pEC50 [1]: 5.60

Structure (SMILES): CCCC(C)COc1ccc([C@H](CO)NC(=O)N(CC)Cc2ccccc2)cc1 (mixture of isomers)
pEC50 [1]: 5.82

Structure (SMILES): CO[C@@H](C)COc1ccc([C@H](CO)NC(=O)[C@@H](C)c2ccccc2)cc1
pEC50 [1]: < 5.00

Structure (SMILES): CCCC(C)COc1ccc([C@H](CO)NC(=O)[C@@H](NC)c2ccccc2)cc1 (mixture of isomers)
pEC50 [1]: 6.07

More lines, in order of rising pEC50 [1], values ahead:

pEC50 [1]: 6.14
Structure (SMILES): CCCC(C)COc1ccc([C@H](CO)NC(=O)[C@H]2C[C@@H]2c2ccccc2)cc1 (mixture of isomers)

concentration at 0.5 h [2]: 24 nM
concentration at 0.5 h [3]: 3240 nM
concentration at 0.5 h [11]: 10500 nM
pEC50 [1]: 6.16
CL/F [6]: 176 mL/min/kg
concentration at 0.5 h [7]: 6850 nM
fraction unbound [10]: 0.05
Structure (SMILES): CC(C)COc1ccc([C@H](CO)NC(=O)[C@H]2C[C@@H]2c2cccs2)cc1

pEC50 [1]: 6.24
Structure (SMILES): CCCC(C)COc1ccc([C@H](CN2CCCC2)NC(=O)[C@@H](C)c2ccccc2)cc1 (mixture of isomers)

pEC50 [1]: 6.30
Structure (SMILES): CC(C)COc1ccc([C@H](CO)NC(=O)[C@@H](C)c2ccccc2)cc1

pEC50 [1]: 6.34
Structure (SMILES): CC[C@H](C)COc1ccc([C@H](CO)NC(=O)[C@@H](C)c2ccccc2)c(F)c1

concentration at 0.5 h [2]: 335 nM
concentration at 0.5 h [3]: 1240 nM
concentration at 0.5 h [11]: 970 nM
pEC50 [1]: 6.39
concentration at 0.5 h [7]: 450 nM
fraction unbound [10]: 0.23
Structure (SMILES): COc1ccc([C@H](CO)NC(=O)[C@@H](C)c2ccccc2)cc1

pEC50 [1]: 6.59
Structure (SMILES): CC[C@H](C)COc1ccc([C@H](CO)NC(=O)[C@@H](C)c2ccccc2)c(C)n1

pEC50 [1]: 6.72
Structure (SMILES): CC[C@H](C)COc1ccc([C@H](CO)NC(=O)[C@@H](C)c2ccccc2)cc1

pEC50 [1]: 6.72
Structure (SMILES): CC[C@H](C)COc1ccc([C@H](CO)NC(=O)[C@@H](C)c2ccccc2)c(OC)c1

pEC50 [1]: 6.77
Structure (SMILES): CCCC(C)COc1ccc([C@H](CO)NC(=O)c2ccccc2)cc1 (mixture of isomers)

pEC50 [1]: 6.77
Structure (SMILES): CC[C@H](C)COc1cc(C)c([C@H](CO)NC(=O)[C@@H](C)c2ccccc2)c(C)c1

pEC50 [1]: 6.80
Structure (SMILES): CC[C@H](C)COc1ccc([C@H](CO)NC(=O)[C@@H](C)c2ccccc2)c(C)c1

pEC50 [1]: 6.96
Structure (SMILES): CCCC(C)COc1ccc([C@H](CN)NC(=O)[C@@H](C)c2ccccc2)cc1 (mixture of isomers)

fraction unbound [12]: 0.025
pEC50 [1]: 7.03
%max ([1]; HEK293): 90%
fraction unbound [13]: 0.036
pEC50 [14]: 6.62
%max ([14]; HEK293): 90%
concentration at 0.5 h [15]: 695 nM
clearance [16]: 47 mL/min/kg
Vd [17]: 2.17 L/kg
Kp at 0.5 h [18]: 2
concentration at 0.5 h [19]: 290 nM
half-life [20]: 36 min
Structure (SMILES): Cc1ccc(-c2ccc([C@H](CO)NC(=O)[C@H]3C[C@@H]3c3cccs3)cc2)cc1

pEC50 [1]: 7.04
Structure (SMILES): CCCC(C)COc1ccc([C@H](CN2CCOCC2)NC(=O)[C@@H](C)c2ccccc2)cc1 (mixture of isomers)

pEC50 [1]: 7.05
Structure (SMILES): CCCC(C)COc1ccc([C@H](CN2CCN(C)CC2)NC(=O)[C@@H](C)c2ccccc2)cc1 (mixture of isomers)
